In US9669044B2, “Aminoglycoside and azole compositions and methods” (Utah State University, priority 2010, dated 2017):
Values after ≈ are worked out from the molar mass of the structure shown. Like-named read-outs stand apart in the source and are kept apart here.

Legend:
Fusarium graminearum [1] = assay: microbe, parasite or virus in culture; type: cell-based; conditions: for MIC: Fusarium graminearum, read-out: MIC (growth inhibition)
Rhodotorula pilimanae [2] = assay: Disk diffusion growth inhibitory assay; type: cell-based; parameters: Relative Activity (zone of inhibition diameter): key: +++, considerable activity; ++, moderate activity; −−−, no activity
Rhodotorula pilimanae [3] = assay: microbe, parasite or virus in culture; type: cell-based; conditions: Rhodotorula mucilaginosa
[4] = tested on: Azole-resistant Candida albicans ATCC 10231; assay: Microdilution checkerboard assay of K20 and azoles; type: cell-based; conditions: for MIC of azole in combination with K20: combined with K20; for Effect (drug interaction class by FICI) / FICI (Fractional Inhibitory Concentration Index): the row's azole combined with K20; for MIC: Candida albicans, ATCC10231, read-out: MIC, azole alone
Ulocladium spp. = assay: Disk diffusion growth inhibitory assay; type: cell-based; parameters: key: +++, considerable activity; ++, moderate activity; −−−, no activity; conditions: PDA-CA medium
[5] = tested on: Saccharomyces cerevisiae W303C; type: cell-based; parameters: key to the marks not given beside the values; further: key: +++, considerable activity; ++, moderate activity; −−−, no activity
Rhizopus stolonifer = assay: Disk diffusion growth inhibitory assay; type: cell-based; parameters: key: +++, considerable activity; ++, moderate activity; −−−, no activity; conditions: PDA-CA medium
Microdochium nivale = type: cell-based; parameters: key to the marks not given beside the values; further: key: +++, considerable activity; ++, moderate activity; −−−, no activity
Micrococcus luteus [6] = assay: Bacterial MIC test in trypticase soy broth; type: cell-based; conditions: 35° C., 12-18 hrs
Method: (§1) For purposes of the experiments discussed in this paragraph, the MIC is defined as the lowest concentration of compound needed to inhibit the growth of bacteria. A solution of a selected bacterium was inoculated into trypticase soy broth (Difco, B D, Franklin Lakes, N.J., USA), at 35° C. and incubated for 1-2 hours. […] The 96-well plate was incubated at 35° C. for 12-18 hrs. The MIC tests were repeated at least three times.

Escherichia coli B = assay: Bacterial MIC test in trypticase soy broth; type: cell-based; conditions: 35° C., 12-18 hrs
Method: as §1

Fusarium graminearum [7] = type: cell-based; conditions: disk diffusion, PDA-CA medium
Fusarium culmorum = type: cell-based; parameters: key to the marks not given beside the values; further: key: +++, considerable activity; ++, moderate activity; −−−, no activity
Mucor haemalis = assay: Disk diffusion growth inhibitory assay; type: cell-based; parameters: key: +++, considerable activity; ++, moderate activity; −−−, no activity; conditions: PDA-CA medium
Fusarium oxysporum = assay: Disk diffusion growth inhibitory assay; type: cell-based; parameters: key: +++, considerable activity; ++, moderate activity; −−−, no activity; conditions: PDA-CA medium
[8] = tested on: Azole-resistant Candida albicans ATCC 10231; assay: Disk diffusion test for synergistic inhibition by itraconazole and K20; type: cell-based
[9] = tested on: Azole-resistant Candida albicans ATCC 10231; assay: Time-kill curves of itraconazole and K20; conditions: K20 alone, 32 μg mL^−1
Method: Method: Strain Candida albicans ATCC 10231 was prepared at an inoculum size of 10^5 c.f.u. mL^−1 in PDB-CA medium. The drug concentrations used were 32 μg mL^−1 for K20 and 0.18 μg mL^−1 for itraconazole. At designated times (0, 3, 6, 9, 24 and 48 h after incubation), 100 μL aliquots were removed from each solution and serially diluted 10-fold in sterile water. One hundred μL volumes of each dilution were streaked on agar surfaces of potato dextrose agar plates to allow growth. Colony counts were determined after incubation for 48 h. The experiment was performed triplicate.

Penicillium spp = type: cell-based; parameters: key to the marks not given beside the values; further: key: +++, considerable activity; ++, moderate activity; −−−, no activity
[10] = tested on: Candida albicans ATCC 10231; assay: Disk diffusion growth inhibitory assay; type: cell-based; parameters: key: +++, considerable activity; ++, moderate activity; −−−, no activity; conditions: PDA-CA medium
[11] = tested on: Cladosporium cladosporioides; type: cell-based; parameters: key to the marks not given beside the values; further: key: +++, considerable activity; ++, moderate activity; −−−, no activity
[12] = tested on: Chinese Hamster Ovary (CHO) cells (line 1-15); type: cell-based; conditions: 3.7 μg mL^−1
Method: Method: […] The cells were transferred into sterile 50 mL Falcon conical plastic tubes containing 10 mL of the medium at a cell density of 2.5×10^5 cells mL^-1. […] The suspensions were incubated with continuous agitation for 48 h at 37° C. with 5% CO2 in a humidified incubator. After 24 and 48 h, lmL portions of the cell culture suspensions (drug treated or untreated) were transferred to Beckman Coulter Vi-Cell XR cups and mixed with Trypan Blue to determine cell counts and viability in a Beckman Coulter Vi-Cell counter.

Micrococcus luteus [13] = assay: Disk diffusion growth inhibitory assay; type: cell-based; parameters: key to the marks not given beside the values; conditions: PDA-CA medium
Escherichia coli TG1 = type: cell-based; parameters: key to the marks not given beside the values; further: key: +++, considerable activity; ++, moderate activity; −−−, no activity
[14] = tested on: Staphylococcus aureus ATCC 6538; assay: Disk diffusion growth inhibitory assay; type: cell-based; parameters: key to the marks not given beside the values; conditions: PDA-CA medium

For `CCCCCCCC(=O)OC[C@H]1OC(O[C@@H]2C(N)CC(N)C(O[C@H]3OC(CN)[C@@H](O)[C@H](O)C3O)[C@@H]2O)[C@H](O)[C@H](N)C1O` (stereo partly drawn) [K05, 6″-O-octanoylkanamycin A], the MIC (Fusarium graminearum [1]) was > 62.5 µg/mL and the “concentration giving no pigmentation” value (Fusarium graminearum [1]; against Fusarium graminearum) was 31.25 µg/mL.

In the case of `CCCCCCCCNC[C@H]1OC(O[C@@H]2C(N)CC(N)C(O[C@H]3OC(CN)[C@@H](O)[C@H](O)C3O)[C@@H]2O)[C@H](O)[C@H](N)C1O` (stereo partly drawn) [K17, 6″-deoxy-6″-octylaminokanamycin A], the “activity in inhibition zone assay” value (Rhodotorula pilimanae [2]; against Rhodotorula pilimanae, result in words) is reported as “Not determined. Only inhibition zone assay and not active against Rhodotorula pilimanae”.

In the case of `CCCCCCCCSC[C@H]1OC(O[C@@H]2C(N)CC(N)C(O[C@H]3OC(CN)[C@@H](O)[C@H](O)C3O)[C@@H]2O)[C@H](O)[C@H](N)C1O` (stereo partly drawn) [K18, 6″-deoxy-6″octylthiokanamycin A], the MIC (Fusarium graminearum [1]) is reported as 15.6 µg/mL (≈ 25.5 µM) and the MIC (Rhodotorula pilimanae [3]) is reported as 62.5 µg/mL (≈ 102 µM).

`Cc1ccc(S(=O)(=O)OC[C@H]2OC(O[C@@H]3C(N)CC(N)C(O[C@H]4OC(CN)[C@@H](O)[C@H](O)C4O)[C@@H]3O)[C@H](O)[C@H](N)C2O)cc1` (stereo partly drawn) [K19, 6″-O-toluenesulfonylkanamycin A] was tested, and the “inhibition of Rhodotorula” value (Rhodotorula pilimanae [2]; result in words, assay type (MIC or disk diffusion) not stated) was “relatively little but nevertheless some inhibition of Rhodotorula”.

`CCCCCCCCS(=O)(=O)OCC1OC(OC2C(N)CC(N)C(OC3OC(CN)C(O)C(O)C3O)C2O)C(O)C(N)C1O` (stereo not drawn) [K20, 6″-O-octanesulfonylkanamycin A] was tested, and the “MIC, K20 alone” value ([4]; checkerboard, PDB-CA) was 128 µg/mL, the “MIC of K20 in combination” value ([4]; in combination with chlotrimazole) was 8 µg/mL and the “MIC of K20 in combination” value ([4]; in combination with fluconazole) was 16 µg/mL. The “MIC of K20 in combination” value ([4]; in combination with itraconazole) was 32 µg/mL, the “MIC of K20 in combination” value ([4]; in combination with ketoconazole) was 32 µg/mL and the “MIC of K20 in combination” value ([4]; in combination with metconazole) was 8 µg/mL. For the same molecule, the “MIC of K20 in combination” value ([4]; in combination with posaconazole) was 16 µg/mL, the “MIC of K20 in combination” value ([4]; in combination with pyraclostrobin) was 16 µg/mL and the “MIC of K20 in combination” value ([4]; in combination with tioconazole) was 16 µg/mL. The “MIC of K20 in combination” value ([4]; in combination with voriconazole) was 4 µg/mL, the “Relative Activity (zone of inhibition diameter)” value (Ulocladium spp.) was “+++” and the “Relative Activity (zone of inhibition diameter)” value [5] was “++”. The “Relative Activity (zone of inhibition diameter)” value (Rhizopus stolonifer) was “+++”, the “Relative Activity (zone of inhibition diameter)” value (Microdochium nivale) was “+++” and the MIC (Micrococcus luteus [6]) was 62.5 µg/mL (≈ 94.6 µM). For the same molecule, the MIC (Escherichia coli B) was 250 µg/mL (≈ 378 µM), the “Relative Activity (zone of inhibition diameter)” value (Fusarium graminearum [7]) was “^b+++” and the “Relative Activity (zone of inhibition diameter)” value (Fusarium culmorum) was “+++”. For the same molecule, the “Relative Activity (zone of inhibition diameter)” value (Rhodotorula pilimanae [2]) was “+++”, the “Relative Activity (zone of inhibition diameter)” value (Mucor haemalis) was “+++” and the “Relative Activity (zone of inhibition diameter)” value (Fusarium oxysporum) was “++”. The “Zone of growth inhibition / fungicidal activity” value ([8]; K20 alone, 32 μg mL^−1 per disc) was “no fungicidal activities”, the time-kill effect [9] was “the same as the control” and the “Relative Activity (zone of inhibition diameter)” value (Penicillium spp) was “++”. The “Relative Activity (zone of inhibition diameter)” value [10] was “++” and the “Relative Activity (zone of inhibition diameter)” value [11] was “++”.

Work on `CCCCCCS(=O)(=O)OC[C@H]1OC(O[C@@H]2C(N)CC(N)C(O[C@H]3OC(CN)[C@@H](O)[C@H](O)C3O)[C@@H]2O)[C@H](O)[C@H](N)C1O` (stereo partly drawn) [K22, 6″-O-hexanesulfonylkanamycin A] yielded an MIC (Fusarium graminearum [1]) of 31.3 µg/mL (≈ 49.5 µM).

With `Clc1ccccc1C(c1ccccc1)(c1ccccc1)n1ccnc1` [chlotrimazole] the “MIC, azole alone” value ([4]; checkerboard, PDB-CA) was 1.25 µg/mL, the “MIC of azole in combination with K20” value ([4]; checkerboard) was 0.15 µg/mL and the “Effect (drug interaction class by FICI)” value [4] was “synergy”. For the same molecule, the “FICI (Fractional Inhibitory Concentration Index)” value [4] was 0.18.

`OC(Cn1cncn1)(Cn1cncn1)c1ccc(F)cc1F` [fluconazole] was tested, and the MIC ([4]; checkerboard, PDB-CA) was > 24 µg/mL, the “MIC of azole in combination with K20” value ([4]; checkerboard) was 3 µg/mL and the “Effect (drug interaction class by FICI)” value [4] was “synergy”. The “FICI (Fractional Inhibitory Concentration Index)” value [4] was 0.18.

For `CCC(C)n1ncn(-c2ccc(N3CCN(c4ccc(OCC5COC(Cn6cncn6)(c6ccc(Cl)cc6Cl)O5)cc4)CC3)cc2)c1=O` (stereo not drawn) [itraconazole], the MIC ([4]; checkerboard, PDB-CA) was > 3 µg/mL, the “MIC of azole in combination with K20” value ([4]; checkerboard) was 0.18 µg/mL and the “Effect (drug interaction class by FICI)” value [4] was “synergy”. For the same molecule, the “FICI (Fractional Inhibitory Concentration Index)” value [4] was 0.31, the “decrease in cell viability” value [12] was 63% and the “Zone of growth inhibition / fungicidal activity” value ([8]; ITC alone, 0.5 μg mL^−1 per disc) was “no fungicidal activities”.

`NCC1O[C@H](OC2C(N)CC(N)[C@@H](OC3O[C@H](CO)C(O)[C@@H](N)[C@H]3O)[C@H]2O)C(O)[C@@H](O)[C@@H]1O` (stereo partly drawn) [kanamycin A] was tested, and the MIC (Micrococcus luteus [6]; read-out: MIC) was 0.98 µg/mL (≈ 2.02 µM), the MIC (Escherichia coli B; read-out: MIC) was 1.95 µg/mL (≈ 4.02 µM) and the “Relative Activity (zone of inhibition diameter)” value (Micrococcus luteus [13]) was “+++”. For the same molecule, the “Relative Activity (zone of inhibition diameter)” value (Escherichia coli TG1) was “+++” and the “Relative Activity (zone of inhibition diameter)” value [14] was “+++”.

Molecule `NC[C@H]1O[C@H](O[C@H]2[C@H](O)[C@@H](O[C@H]3O[C@H](CO)[C@@H](O)[C@H](N)[C@H]3O)[C@H](N)C[C@@H]2N)[C@H](N)[C@@H](O)[C@@H]1O` [kanamycin B] has an MIC (Micrococcus luteus [6]) of 0.98 µg/mL (≈ 2.03 µM) and an MIC (Escherichia coli B) of 1.95 µg/mL (≈ 4.03 µM).

For `CC(=O)N1CCN(c2ccc(OCC3COC(Cn4ccnc4)(c4ccc(Cl)cc4Cl)O3)cc2)CC1` (stereo not drawn) [ketoconazole], the MIC ([4]; checkerboard, PDB-CA) was 24 µg/mL, the “MIC of azole in combination with K20” value ([4]; checkerboard) was 1.5 µg/mL and the “Effect (drug interaction class by FICI)” value [4] was “synergy”. For the same molecule, the “FICI (Fractional Inhibitory Concentration Index)” value [4] was 0.31.

For `CC1(C)CCC(Cc2ccc(Cl)cc2)C1(O)Cn1cncn1` (stereo not drawn) [metconazole], the MIC ([4]; checkerboard, PDB-CA) was 2.5 µg/mL, the “MIC of azole in combination with K20” value ([4]; checkerboard) was 0.15 µg/mL and the “Effect (drug interaction class by FICI)” value [4] was “synergy”. For the same molecule, the “FICI (Fractional Inhibitory Concentration Index)” value [4] was 0.12.

With `CC[C@@H]([C@H](C)O)n1ncn(-c2ccc(N3CCN(c4ccc(OC[C@@H]5CO[C@@](Cn6cncn6)(c6ccc(F)cc6F)C5)cc4)CC3)cc2)c1=O` [posaconazole] the MIC ([4]; checkerboard, PDB-CA) was > 0.75 µg/mL, the “MIC of azole in combination with K20” value ([4]; checkerboard) was 0.09 µg/mL and the “Effect (drug interaction class by FICI)” value [4] was “synergy”. The “FICI (Fractional Inhibitory Concentration Index)” value [4] was 0.24.

With `COC(=O)N(OC)c1ccccc1COc1ccn(-c2ccc(Cl)cc2)n1` [pyraclostrobin] the MIC ([4]; checkerboard, PDB-CA) was 6 µg/mL, the “MIC of azole in combination with K20” value ([4]; checkerboard) was 0.75 µg/mL and the “Effect (drug interaction class by FICI)” value [4] was “synergy”. The “FICI (Fractional Inhibitory Concentration Index)” value [4] was 0.25.

`Clc1ccc(C(Cn2ccnc2)OCc2ccsc2Cl)c(Cl)c1` (stereo not drawn) [tioconazole] was tested, and the MIC ([4]; checkerboard, PDB-CA) was 0.25 µg/mL, the “MIC of azole in combination with K20” value ([4]; checkerboard) was 0.03 µg/mL and the “Effect (drug interaction class by FICI)” value [4] was “synergy”. The “FICI (Fractional Inhibitory Concentration Index)” value [4] was 0.25.

In the case of `C[C@@H](c1ncncc1F)[C@](O)(Cn1cncn1)c1ccc(F)cc1F` [voriconazole], the MIC ([4]; checkerboard, PDB-CA) is reported as > 1 µg/mL, the “MIC of azole in combination with K20” value ([4]; checkerboard) is reported as 0.125 µg/mL and the “Effect (drug interaction class by FICI)” value [4] is reported as “synergy”. The “FICI (Fractional Inhibitory Concentration Index)” value [4] was 0.15.
